One test concerns the target T1, HIV-1 protease (Q7S mutant form) (Human immunodeficiency virus type 1 group M subtype B, UniProt P04585, Q495S).
T1 construct: made in house
As to the kind of experiment: HIV-1 Protease RET assay. Type of test: biochemical. Particulars: Ave. Ki (nM), RET assay, Q7S enzyme, Morrison tight binding fit. The protocol:
Ki's for the inhibitors of HIV-1 protease were determined using a resonance energy transfer (RET) assay. […] This enzyme is first partially purified as inclusion bodies from cell lysate. It is then solublized in 8M urea and passed through a Q-Sepharose column (Pharmacia) for further purification. To refold this protein, samples containing Q7S is dialyzed into 50 mM sodium phosphate pH 7.0, 50 mM NaCl, 10 mM DTT, and 10% glycerol.
The commercially available peptide substrate (Molecular Probes Cat. # H-2930) RE(EDANS)SQNYPIVQK(DABCYL)R is used to assess activity and Ki's. This peptide is cleaved quantitatively by HIV-1 Pr at the Tyr-Pro bond. The EDANS fluorophore absorbs at 340 nm and emits at 490 nm. The reaction is carried out in a 96 well plate in a total volume of 100 µL and is run for 12 minutes at 37 C under steady-state conditions with 5 µM substrate and 2 nM active dimer enzyme concentration. The literature value Km for this substrate and enzyme is 103+/−8 µM (See Matayoshi, et al., “Novel Fluorogenic Substrates for Assaying Retroviral Proteases by Resonance Energy Transfer,” Science 247, 954 (1990)). The buffer for this reaction is 0.1M sodium acetate pH 4.8, 1M NaCl, 1 mM EDTA, 5 mM dithiothreitol, 10% dimethyl sulfoxide and 1 mg/ml bovine serum albumin. Inhibition curves are fit using the Morrison tight binding equation.
Turning to `CC(C)=CCNC(=O)[C@@H]1CC(F)(F)CN1C(=O)[C@@H](O)[C@H](Cc1ccccc1)NC(=O)c1cccc(O)c1C` [Example C9, (S)-4,4-Difluoro-1-((2S,3S)-2-hydroxy-3-{[1-(3-hydroxy-2-methyl-phenyl)-methanoyl]-amino}-4-phenyl-butanoyl)-pyrrolidine-2-carboxylic acid (3-methyl-but-2-enyl)-amide], the inhibition constant (Ki) – broadly, the dissociation constant of the complex between target and ligand, obtained from inhibition or displacement – was determined as 6.3 nM.

The molecule `Cc1ccccc1CNC(=O)[C@H]1N(C(=O)[C@@H](O)[C@H](Cc2ccccc2)NC(=O)NCc2cccc(C(F)(F)F)c2)CSC1(C)C` [Example B75, (R)-3-{(2S,3S)-2-Hydroxy-4-phenyl-3-[3-(3-trifluoromethyl-benzyl)-ureido]-butyryl}-5,5-dimethyl-thiazolidine-4-carboxylic acid 2-methyl-benzylamide] showed a Ki of 81 nM.

`Cc1ccc(CNC(=O)NC(Cc2ccccc2)C(O)C(=O)N2CSC(C)(C)[C@H]2C(=O)NCc2ccccc2C)c(C)c1` (stereo in doubt) [Example B69, 3-{3-[3-(2,4-Dimethyl-benzyl)-ureido]-2-hydroxy-4-phenyl-butyryl}-5,5-dimethyl-thiazolidine-4-carboxylic acid 2-methyl-benzylamide] had an inhibitory constant (Ki) of 7.7 nM.

In turn, `Cc1c(O)cccc1C(=O)N[C@@H](Cc1ccccc1)[C@H](O)C(=O)N1CC(F)(F)C[C@H]1C(=O)NCc1c(F)cccc1Cl` [Example C14, (S)-4,4-Difluoro-1-[(2S,3S)-2-hydroxy-3-(3-hydroxy-2-methyl-benzoylamino)-4-phenyl-butyryl]-pyrrolidine-2-carboxylic acid 2-chloro-6-fluoro-benzylamide] had an inhibitory constant (Ki) of 2.5 nM.

`COc1cccc(CNC(=O)N[C@@H](Cc2ccccc2)[C@H](O)C(=O)N2CSC(C)(C)[C@H]2C(=O)NCc2ccccc2C)c1` [Example B76, (R)-3-{(2S,3S)-2-Hydroxy-3-[3-(3-methoxy-benzyl)-ureido]-4-phenyl-butyryl}-5,5-dimethyl-thiazolidine-4-carboxylic acid 2-methyl-benzylamide]: the inhibition constant (Ki) worked out at 11.2 nM.

On to `Cc1ccccc1CNC(=O)[C@@H]1C[C@@H]2CCCC[C@@H]2CN1C(=O)[C@@H](O)[C@H](Cc1ccccc1)NC(=O)c1cccc(O)c1C` [Example C49, (3S,4aS,8aS)-2-((2S,3S)-2-Hydroxy-3-{[1-(3-hydroxy-2-methyl-phenyl)-methanoyl]-amino}-4-phenyl-butanoyl)-decahydro-isoquinoline-3-carboxylic acid 2-methyl-benzylamide], for which affinity was put at a Ki of 150 nM.

`C#CCOC(=O)N[C@@H](Cc1ccccc1)[C@H](O)C(=O)N1CC(F)(F)C[C@H]1C(=O)NCc1ccccc1C` [Example C44, {1-Benzyl-3-[4,4-difluoro-2-(2-methyl-benzylcarbamoyl)-pyrrolidin-1-yl]-2-hydroxy-3-oxo-propyl}-carbamic acid prop-2-ynyl ester] had a Ki of 14.8 nM. This Ki lies about 10-fold lower than the previous one.

`COc1ccc(CNC(=O)NC(Cc2ccccc2)C(O)C(=O)N2CSC(C)(C)[C@H]2C(=O)NCc2ccc(OC)cc2)cc1` (stereo partly drawn) [Example B63, 33-{(2S,3S)-2-Hydroxy-3-[3-(4-methoxy-benzyl)-ureido]-4-phenyl-butanoyl}-5,5-dimethyl-thiazolidine-4-carboxylic acid 4-methoxy-benzylamide] had a Ki of 7.8 nM.

Molecule `CC1(C)SCN(C(=O)[C@@H](O)[C@H](Cc2ccccc2)NC(=O)NCc2c(F)cccc2F)[C@@H]1C(=O)NCc1c(F)cccc1F` [Example B49] came in with a Ki of 120 nM. Against the preceding molecule, the Ki is about 15-fold higher.

The molecule `Cc1ccccc1CNC(=O)[C@H]1N(C(=O)C(O)C(Cc2ccccc2)NC(=O)NCc2ccc(Br)cc2)CSC1(C)C` (stereo in doubt) [Example B73, 3-{3-[3-(4Bromo-benzyl)-ureido]-2-hydroxy-4phenyl-butyryl}-5,5-dimethyl-thiazolidine-4-carboxylic acid 2-methyl-benzylamide] showed a Ki of 13 nM.

The molecule `Cc1c(O)cccc1C(=O)N[C@@H](Cc1ccccc1)[C@H](O)C(=O)N1CO[C@@H](C)[C@H]1C(=O)N[C@@H]1C=CCCC1` [Example C28, (4S,5S)-3-((2S,3S)-2-Hydroxy-3-{[1-(3-hydroxy-2-methyl-phenyl)-methanoyl]-amino}-4phenyl-butanoyl)-5-methyl-oxazoldine-4-carboxylic acid (S)-cyclohex-2-enylamide] registered a Ki of 8.4 nM. Against the preceding molecule, the Ki is about 1.5-fold lower.

The molecule `CC1(C)SCN(C(=O)[C@@H](O)[C@H](Cc2ccccc2)NC(=O)NCc2ccccc2)[C@@H]1C(=O)NCc1ccccc1` [Example B61, 3-[(2S,3S)-3-(3-Benzyl-ureido)-2-hydroxy-4-phenyl-butyryl]-5,5-dimethyl-thiazolidine-4-carboxylic acid benzylamide] came in with an inhibition constant Ki of 16.9 nM. Compared with the last molecule, the Ki is about 2-fold higher.

The same test, now with this note: Ki, unit inferred.
`Cc1ccccc1CNC(=O)[C@H]1N(C(=O)[C@@H](O)[C@H](Cc2ccccc2)NC(=O)OC2CCC3CCCC3C2)CSC1(C)C` (stereo partly drawn): the inhibition constant Ki is 148 nM.

Consider `Cc1ccccc1CNC(=O)[C@@H]1CSCN1C(=O)[C@@H](O)[C@H](Cc1ccccc1)NC(=O)CCc1c(C)cccc1C`, for which the affinity corresponds to a Ki of 20 nM.

Molecule `Cc1ccccc1CNC(=O)[C@H]1N(C(=O)[C@@H](O)[C@H](Cc2ccccc2)NC(=O)C(C)(C)CN)CSC1(C)C` returned a Ki of 18.7 nM.

As to `Cc1ccccc1CNC(=O)[C@H]1N(C(=O)[C@@H](O)[C@H](Cc2ccccc2)NC(=O)CCNC(=O)OC(C)(C)C)CSC1(C)C` [drawing 1035], the affinity corresponds to a Ki of 94 nM.

The molecule `Cc1ccccc1CNC(=O)[C@H]1N(C(=O)[C@@H](O)[C@H](Cc2ccccc2)NC(=O)CNC(=O)OC(C)(C)C)CSC1(C)C` yielded an inhibition constant Ki of 88 nM.

As for `Cc1ccccc1CNC(=O)[C@H]1N(C(=O)[C@@H](O)[C@H](Cc2ccccc2)NC(=O)CNc2ccc(F)cc2)CSC1(C)C`, the inhibition constant (Ki) is 6 nM.

For the molecule `Cc1ccccc1CNC(=O)[C@H]1N(C(=O)[C@@H](O)[C@H](Cc2ccccc2)NC(=O)CN)CSC1(C)C`, the Ki amounted to 110 nM. Compared with the last molecule, the Ki is about 18-fold higher.

`Cc1ccccc1CNC(=O)[C@@H]1N(C(=O)[C@@H](O)[C@H](Cc2ccccc2)NC(=O)c2cccc(O)c2C)CSC12CCCCC2`: affinity was put at a Ki of 11 nM.

On to `C/C=C(/C)C(=O)N[C@@H](Cc1ccccc1)[C@H](O)C(=O)N1CSC(C)(C)[C@H]1C(=O)NCc1ccccc1C`, for which the affinity corresponds to a Ki of 7.6 nM. The Ki values of the last two molecules are within 1.5-fold of each other.

`CC(C)(C)OC(=O)N[C@@H](Cc1ccccc1)[C@H](O)C(=O)N1CSC(C)(C)C1C(=O)NCc1ccccc1Cl` (stereo partly drawn): the inhibition constant Ki was found to be 20 nM.

Consider `Cc1ccccc1CCC(=O)C1N(C(=O)[C@@H](O)C(Cc2ccccc2)NC(=O)NCc2ccc(Cl)cc2)CSC1(C)C` (stereo partly drawn), for which the Ki is 8.2 nM.

Molecule `Cc1ccccc1CNC(=O)[C@H]1N(C(=O)[C@@H](O)[C@H](Cc2ccccc2)NC(=O)CC(C)NC(=O)OC(C)(C)C)CSC1(C)C` (stereo partly drawn) had a Ki of 122 nM.

Turning to `Cc1ccccc1CNC(=O)[C@H]1N(C(=O)[C@@H](O)[C@H](Cc2ccccc2)NC(=O)CCN)CSC1(C)C`, the inhibition constant (Ki) worked out at 156 nM.

Take `CC(C)=CC(=O)N[C@@H](Cc1ccccc1)[C@H](O)C(=O)N1CSC(C)(C)[C@H]1C(=O)NCc1ccccc1C`: the Ki worked out at 6.1 nM.

The molecule `Cc1c(O)cccc1C(=O)N[C@@H](Cc1ccccc1)[C@H](O)C(=O)N1CSC(C)(C)[C@H]1C(=O)NCc1cc(Cl)nc(Cl)c1` registered a Ki of 47 nM.

The molecule `Cc1c(O)cccc1C(=O)N[C@@H](Cc1ccccc1)[C@H](O)C(=O)N1CSC(C)(C)C1C(=O)NCCc1ccccn1` (stereo partly drawn) returned a Ki of 134 nM.

In the case of `Cc1ccccc1CNC(=O)[C@H]1N(C(=O)[C@@H](O)[C@H](Cc2ccccc2)NC(=O)CCNC(=O)OC(C)(C)C)CSC1(C)C` [drawing 1038], the Ki came to 48 nM.

For the molecule `CC(C)(C)OC(=O)N[C@@H](Cc1ccccc1)[C@H](O)C(=O)N1CSC(C)(C)C1C(=O)NCc1c(F)cccc1F` (stereo partly drawn), the Ki stood at 54 nM.

In turn, `Cc1ccccc1CNC(=O)[C@H]1N(C(=O)[C@@H](O)[C@H](Cc2ccccc2)NC(=O)COc2cc(N(C)C)ccc2C)CSC1(C)C` registered a Ki of 8.1 nM.

Regarding `CC1(C)SCN(C(=O)[C@@H](O)[C@H](Cc2ccccc2)NC(=O)CSc2nc[nH]n2)[C@@H]1C(=O)NCc1cccs1`, the affinity, expressed as Ki, was 13.9 nM.

For `Cc1c(O)cccc1C(=O)N[C@@H](Cc1ccccc1)[C@H](O)C(=O)N1CSC2(CCC2)[C@@H]1C(=O)N[C@@H]1C=CCCC1`, the affinity, expressed as Ki, was 12.9 nM.

In the case of `Cc1c(O)cccc1C(=O)N[C@@H](Cc1ccccc1)[C@H](O)C(=O)C1CCC2(CCCC2)[C@@H]1C(=O)NC1=CCCCC1` (stereo partly drawn), the Ki amounted to 53 nM. This Ki lies about 4.1-fold higher than the previous one.

Molecule `CC1(C)SCN(C(=O)[C@@H](O)[C@H](Cc2ccccc2)NC(=O)c2cccc3c2CCN3)[C@@H]1C(=O)NCc1cccs1` returned a Ki of 6.8 nM.

The molecule `CC1(C)SCN(C(=O)[C@@H](O)[C@H](Cc2ccccc2)NC(=O)NCc2ccccc2Cl)C1C(=O)NCc1ccccc1Cl` (stereo partly drawn) [drawing 953] showed an inhibition constant (Ki) of 74 nM.

For the molecule `Cc1ccccc1CNC(=O)[C@H]1N(C(=O)[C@@H](O)[C@H](Cc2ccccc2)NC(=O)C2CCCNC2)CSC1(C)C` (stereo partly drawn), the Ki came out at 11.5 nM.

Regarding `Cc1ccccc1CNC(=O)[C@H]1N(C(=O)[C@@H](O)[C@H](Cc2ccccc2)NC(=O)Cc2c(F)cccc2F)CSC1(C)C`, the inhibition constant Ki amounted to 72 nM.

For the molecule `Cc1cccc(C)c1CNC(=O)[C@@H]1C[C@@H]2CCCC[C@@H]2CC1C(=O)[C@@H](O)[C@H](Cc1ccccc1)NC(=O)c1cccc(O)c1C` (stereo partly drawn), the Ki was 83 nM.

The values above are taken from patent US7094909B2, “HIV protease inhibitors, compositions containing the same, their pharmaceutical uses and materials for their synthesis” (priority 2001, dated 2006).
